According to ChEMBL document CHEMBL1201862, “PubChem BioAssay data set” (2004):
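Growth conditions: 96-well plates. Treatment: test compound, 48 hours, 5 concentrations. Analysis: linear interpolation between bracketing concentrations; unreached endpoints set to highest concentration. The concentration for 50% growth inhibition is given as GI50.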 Activity calls are given as the source filed them. Rule as the data show it: active = GI50 up to about 1.1 µM and inactive = higher. Where a SMILES comes first, the peptide text is derived from it. [ ]: non-standard residue; d: D form. The star is where a group is joined. Phe(4-NO2) = N[CH](Cc1ccc([N+](=O)[O-])cc1)C(=O)O; Boc = CC(C)(C)OC(=O)*; OtBu = CC(C)(C)O*

What was measured:
Assay in all cases: growth of human tumour cells (NCI), 48 h
CAKI-1 = tested on: CAKI-1
UACC-62 = tested on: UACC-62
HT-29 = tested on: HT-29
SF-295 = tested on: SF-295
PC-3 = tested on: PC-3
T47D = tested on: T47D
SK-MEL-28 = tested on: SK-MEL-28
HCT-116 = tested on: HCT-116
NCI-H23 = tested on: NCI-H23
EKVX = tested on: EKVX
SW-620 = tested on: SW-620
KM12 = tested on: KM12
A498 = tested on: A498
DU-145 = tested on: DU-145
TK-10 = tested on: TK-10
IGROV-1 = tested on: IGROV-1
BT-549 = tested on: BT-549
OVCAR-4 = tested on: OVCAR-4
NCI-H522 = tested on: NCI-H522

Measured: GI50

Cc1c(-c2ccccn2)ccc2ccccc12
inactive: CAKI-1 45 µM | UACC-62 47.1 µM | HT-29 41.7 µM | SF-295 83.8 µM | PC-3 47.3 µM | T47D 39.2 µM | SK-MEL-28 85.5 µM | HCT-116 43.4 µM | NCI-H23 90.2 µM | EKVX 52.6 µM | SW-620 80.4 µM | KM12 82.8 µM | A498 > 100 µM | DU-145 > 100 µM | TK-10 45.2 µM

COC(=O)C1CCC(=S)N1C(C)=O (centres undefined)
inactive: CAKI-1 > 100 µM | UACC-62 > 100 µM | HT-29 > 100 µM | IGROV-1 > 100 µM | SF-295 > 100 µM | PC-3 > 100 µM | BT-549 > 100 µM | SK-MEL-28 > 100 µM | OVCAR-4 > 100 µM | HCT-116 > 100 µM | NCI-H23 > 100 µM | EKVX > 100 µM | NCI-H522 > 100 µM | SW-620 > 100 µM | KM12 > 100 µM | A498 > 100 µM | DU-145 > 100 µM | TK-10 > 100 µM

CC(=O)NC(CCC(=O)OC(C)(C)C)C(=O)NC(CCC(=O)OC(C)(C)C)C(=O)NC(Cc1ccc([N+](=O)[O-])cc1)C(=O)NC(CCCCNC(=O)OC(C)(C)C)C(=O)NC(CCCCNC(=O)OC(C)(C)C)C(=O)NCC(=O)O (centres undefined) (Ac-E(OtBu)E(OtBu)[Phe(4-NO2)]K(Boc)K(Boc)G-OH; configuration not given here)
inactive: CAKI-1 > 100 µM | UACC-62 > 100 µM | HT-29 > 100 µM | IGROV-1 > 100 µM | SF-295 > 100 µM | PC-3 > 100 µM | T47D > 100 µM | SK-MEL-28 > 100 µM | OVCAR-4 > 100 µM | HCT-116 > 100 µM | NCI-H23 > 100 µM | EKVX > 100 µM | NCI-H522 > 100 µM | SW-620 > 100 µM | KM12 > 100 µM | DU-145 > 100 µM | TK-10 > 100 µM

C#CCn1c(=O)c2ccccc2n(CC#C)c1=O
inactive: CAKI-1 > 10 µM | HT-29 > 10 µM | IGROV-1 > 10 µM | SF-295 > 10 µM | PC-3 > 10 µM | T47D > 10 µM | SK-MEL-28 > 10 µM | OVCAR-4 > 10 µM | HCT-116 > 10 µM | NCI-H23 > 10 µM | EKVX > 10 µM | NCI-H522 > 10 µM | SW-620 > 10 µM | KM12 > 10 µM | A498 > 10 µM | DU-145 > 10 µM | TK-10 > 10 µM

CC(=O)OC1CC2CCC1(C)C2(C)C (centres undefined)
inactive: UACC-62 > 100 µM | HT-29 > 100 µM | IGROV-1 > 100 µM | SF-295 > 100 µM | PC-3 > 100 µM | T47D > 100 µM | SK-MEL-28 > 100 µM | OVCAR-4 > 100 µM | HCT-116 > 100 µM | NCI-H23 > 100 µM | NCI-H522 > 100 µM | SW-620 > 100 µM | KM12 > 100 µM | A498 > 100 µM | DU-145 > 100 µM | TK-10 > 100 µM

N=C(N)NCCCC(NC(=O)c1c2ccccc2nc2ccccc12)C(=O)O (centres undefined)
inactive: CAKI-1 > 100 µM | UACC-62 > 100 µM | HT-29 > 100 µM | IGROV-1 > 100 µM | SF-295 > 100 µM | PC-3 > 100 µM | BT-549 > 100 µM | SK-MEL-28 > 100 µM | OVCAR-4 > 100 µM | HCT-116 > 100 µM | NCI-H23 > 100 µM | EKVX > 100 µM | NCI-H522 > 100 µM | SW-620 > 100 µM | KM12 > 100 µM | A498 > 100 µM | DU-145 > 100 µM | TK-10 > 100 µM

O=C(/C=C/c1cccs1)c1ccccc1Cl
inactive: CAKI-1 10.6 µM | UACC-62 13.3 µM | HT-29 16.9 µM | IGROV-1 17.6 µM | SF-295 17.8 µM | PC-3 15.4 µM | T47D 5.96 µM | SK-MEL-28 16.3 µM | OVCAR-4 6.31 µM | HCT-116 13 µM | NCI-H23 8.81 µM | EKVX 15.1 µM | NCI-H522 2.77 µM | SW-620 14.5 µM | KM12 7.31 µM | A498 10.2 µM | DU-145 12.4 µM | TK-10 16.4 µM

Cc1c/c(=N/NC(=O)c2ccncc2)n2nc(N)sc2n1
inactive: CAKI-1 > 100 µM | UACC-62 > 100 µM | HT-29 > 100 µM | IGROV-1 > 100 µM | SF-295 > 100 µM | PC-3 > 100 µM | BT-549 > 100 µM | SK-MEL-28 > 100 µM | OVCAR-4 > 100 µM | HCT-116 > 100 µM | NCI-H23 > 100 µM | EKVX > 100 µM | NCI-H522 > 100 µM | SW-620 > 100 µM | KM12 > 100 µM | A498 > 100 µM | DU-145 > 100 µM

CCOC(=O)/C(C#N)=C/c1ccc(CO)o1
inactive: CAKI-1 > 100 µM | UACC-62 > 100 µM | HT-29 > 100 µM | IGROV-1 > 100 µM | SF-295 > 100 µM | PC-3 > 100 µM | T47D > 100 µM | SK-MEL-28 > 100 µM | OVCAR-4 > 100 µM | HCT-116 > 100 µM | NCI-H23 > 100 µM | EKVX > 100 µM | NCI-H522 > 100 µM | SW-620 > 100 µM | KM12 > 100 µM | A498 > 100 µM | DU-145 > 100 µM | TK-10 > 100 µM

Fc1cc(C2=Nn3c(COc4ccccc4Cl)nnc3S/C2=C\c2ccc(Cl)cc2)c(Cl)cc1Cl
inactive: CAKI-1 8.02 µM | HT-29 3.18 µM | IGROV-1 3.8 µM | SF-295 4.28 µM | PC-3 12.3 µM | T47D 13.6 µM | SK-MEL-28 3.54 µM | OVCAR-4 9.84 µM | HCT-116 2.74 µM | NCI-H23 1.96 µM | EKVX 10.1 µM | NCI-H522 5.5 µM | SW-620 3.54 µM | KM12 3.21 µM | A498 14.2 µM | DU-145 5.97 µM | TK-10 11.6 µM

NC1=C(N2CCCCC2)C(=O)NC2=N/C(=C\c3ccccc3)C(=O)N21
inactive: CAKI-1 > 100 µM | HT-29 > 100 µM | IGROV-1 > 100 µM | SF-295 > 100 µM | T47D > 100 µM | SK-MEL-28 > 100 µM | OVCAR-4 86.3 µM | HCT-116 > 100 µM | NCI-H23 > 100 µM | EKVX 92.9 µM | NCI-H522 63.2 µM | SW-620 > 100 µM | KM12 > 100 µM | A498 > 100 µM | DU-145 > 100 µM | TK-10 > 100 µM

CNC1=Nc2ccccc2C(=S)N2CSC[C@@H]12
inactive: CAKI-1 > 100 µM | UACC-62 > 100 µM | HT-29 > 100 µM | SF-295 > 100 µM | PC-3 > 100 µM | T47D > 100 µM | SK-MEL-28 > 100 µM | OVCAR-4 > 100 µM | HCT-116 > 100 µM | NCI-H23 > 100 µM | NCI-H522 > 100 µM | SW-620 > 100 µM | KM12 > 100 µM | A498 > 100 µM | DU-145 > 100 µM | TK-10 > 100 µM

N=C(N)N/N=C/c1cc(Cl)cc(Cl)c1O
inactive: CAKI-1 38.7 µM | UACC-62 41 µM | HT-29 62.1 µM | IGROV-1 > 100 µM | SF-295 58.1 µM | PC-3 36.7 µM | T47D 32.2 µM | SK-MEL-28 86.9 µM | OVCAR-4 46.9 µM | HCT-116 57 µM | NCI-H23 56.5 µM | EKVX 38.9 µM | NCI-H522 56.5 µM | SW-620 97.5 µM | KM12 45.1 µM | A498 51.1 µM | DU-145 75 µM | TK-10 69 µM

C=CCOC(=O)Cn1cnc2c(N)ncnc21
inactive: CAKI-1 > 100 µM | UACC-62 > 100 µM | HT-29 > 100 µM | IGROV-1 > 100 µM | SF-295 > 100 µM | PC-3 > 100 µM | T47D > 100 µM | SK-MEL-28 > 100 µM | OVCAR-4 > 100 µM | HCT-116 > 100 µM | NCI-H23 > 100 µM | EKVX > 100 µM | SW-620 > 100 µM | KM12 > 100 µM | A498 > 100 µM | DU-145 > 100 µM | TK-10 > 100 µM

COC(C)(C)[C@@H]1CCCN1C1=C(C)C(=O)OC1
inactive: CAKI-1 > 100 µM | UACC-62 > 100 µM | IGROV-1 > 100 µM | SF-295 > 100 µM | PC-3 > 100 µM | T47D > 100 µM | HCT-116 > 100 µM | NCI-H23 > 100 µM | DU-145 > 100 µM

C=C=C(C)[Si](C)(C)C
inactive: CAKI-1 > 100 µM | UACC-62 > 100 µM | HT-29 > 100 µM | IGROV-1 71.1 µM | SF-295 > 100 µM | PC-3 > 100 µM | T47D > 100 µM | SK-MEL-28 > 100 µM | OVCAR-4 > 100 µM | HCT-116 > 100 µM | NCI-H23 > 100 µM | NCI-H522 > 100 µM | SW-620 90.6 µM | KM12 > 100 µM | A498 > 100 µM | DU-145 > 100 µM | TK-10 > 100 µM
